Experimental data: patent publication US20050058611A1, “Preventing and/or combating collagen fiber degradation induced under conditions of natural exposure to sunlight” (L'OREAL, priority 2003, published 2005)

Columns and labels:
[1] = tested on: production of MMP-1 by normal human fibroblasts; assay: Keratinocyte conditioned medium transferred onto fibroblasts; MMP-1 production by ELISA; format: cell-based; conditions: for Production of MMP-1: sodium butyrate 3 mM, fibroblast culture supernatant 24 hours after transfer
From the text: Normal human keratinocytes cultured as a monolayer on plastic were subjected to a UV-B radiation (10 mJ/cm^2). The experiment may also be performed in the presence of an SSR as defined in Example 1.
A Philips TL 20 W/12 tube equipped with a Kodacel filter to remove the wavelengths below 290 nm is used as UV-B source.
Just before irradiation, the culture medium of the sub-confluent cells (80-90% of confluence) is replaced with a PBS phosphate buffer to avoid the generation of phototoxic products by the medium. Under these conditions, no loss of viability of the cells is observed at the UV doses used.
After irradiation, the cells were placed in contact with an MEM culture medium free of serum and of growth factor, which are known to interfere with the detection or production of MMP-1, containing or not containing sodium butyrate NaBu (3 mM).
The conditioned medium of the keratinocytes (irradiated or not, in the presence or absence of sodium butyrate) was taken up 24 hours after irradiation and placed in contact with normal human fibroblasts.
The production of MMP-1 detected 24 hours later in the fibroblast culture supernatant was quantified by means of the “Biotrak MMP-1 human ELISA system” detection kit sold by Amersham, according to the supplier's indications.
The results are read using a LabSystems microplate reader equipped with a 450 nm filter.
The amount of MMP-1 is calculated relative to a calibration range prepared with a standard supplied with the kit, and is expressed in ng/ml.

[2] = tested on: production of MMP-1 by normal human epidermal keratinocytes; assay: MMP-1 production by normal human epidermal keratinocytes cultured on plastic, ELISA; format: cell-based; conditions: TPA 20 ng/ml, positive control; cell culture supernatant 24 hours after treatment
Method: FIG. 5 illustrates the production of MMP-1 by normal human epidermal keratinocytes. The cells cultured on plastic are exposed to SSR or treated with TPA (20 ng/ml). The MMP-1 content is evaluated by ELISA 24 hours after treatment in the cell culture supernatant.
Human keratinocytes are isolated from normal human skin (breast surgery) and cultured on a nourishing layer of mitomycin-treated 3T3 mouse fibroblasts.
The MMP-1 content is measured by ELISA (Biotrak kit RPN 2610, Amersham Biotech, France) according to the supplier's instructions.
To determine whether the irradiation of SSR type could also modulate the production of MMP-1 by keratinocytes growing on plastic, the cells were exposed to an SSR radiation. The MMP-1 extracellular contents were quantified 24 hours after UV radiation.

Structure (SMILES) | Effect on the photoinduced stimulation of MMP-1 production ([1]; UV-B irradiated keratinocyte conditioned medium) | Production of MMP-1 ([1]; irradiated (UV-B 10 mJ/cm^2) keratinocyte conditioned medium) [ng/mL] | Inhibition of basal production of MMP-1 (factor) ([1]; non-irradiated condition, versus control conditioned medium) | Production of MMP-1 ([1]; non-irradiated keratinocyte conditioned medium) [ng/mL] | MMP-1 production by keratinocytes [2]
CCCC(=O)[O-].[Na+] [sodium butyrate] | capable of preventing this stimulatory effect on MMP-1 production | 16.97 ± 3.7 | 3 | 4.84 ± 0.36 | –
CCCCCCCCCCCCCC(=O)O[C@@H]1[C@@H](C)[C@@]2(O)[C@@H](C=C(CO)C[C@]3(O)C(=O)C(C)=C[C@@H]23)[C@H]2C(C)(C)[C@]12OC(C)=O [TPA] | – | – | – | – | leads to an accumulation of MMP-1 production
